# Test results published in US10059689B2, “Substituted heteroaryl compounds and methods of use” (Sunshine Lake Pharma Co., Ltd., priority 2014, dated 2018).
# Molecular target: T1, FLT3 (h) (Homo sapiens, UniProt P36888)
# T1 construct: purchased Millipore UK Ltd (contract assay service)
# T1 sequence (P36888 27-993): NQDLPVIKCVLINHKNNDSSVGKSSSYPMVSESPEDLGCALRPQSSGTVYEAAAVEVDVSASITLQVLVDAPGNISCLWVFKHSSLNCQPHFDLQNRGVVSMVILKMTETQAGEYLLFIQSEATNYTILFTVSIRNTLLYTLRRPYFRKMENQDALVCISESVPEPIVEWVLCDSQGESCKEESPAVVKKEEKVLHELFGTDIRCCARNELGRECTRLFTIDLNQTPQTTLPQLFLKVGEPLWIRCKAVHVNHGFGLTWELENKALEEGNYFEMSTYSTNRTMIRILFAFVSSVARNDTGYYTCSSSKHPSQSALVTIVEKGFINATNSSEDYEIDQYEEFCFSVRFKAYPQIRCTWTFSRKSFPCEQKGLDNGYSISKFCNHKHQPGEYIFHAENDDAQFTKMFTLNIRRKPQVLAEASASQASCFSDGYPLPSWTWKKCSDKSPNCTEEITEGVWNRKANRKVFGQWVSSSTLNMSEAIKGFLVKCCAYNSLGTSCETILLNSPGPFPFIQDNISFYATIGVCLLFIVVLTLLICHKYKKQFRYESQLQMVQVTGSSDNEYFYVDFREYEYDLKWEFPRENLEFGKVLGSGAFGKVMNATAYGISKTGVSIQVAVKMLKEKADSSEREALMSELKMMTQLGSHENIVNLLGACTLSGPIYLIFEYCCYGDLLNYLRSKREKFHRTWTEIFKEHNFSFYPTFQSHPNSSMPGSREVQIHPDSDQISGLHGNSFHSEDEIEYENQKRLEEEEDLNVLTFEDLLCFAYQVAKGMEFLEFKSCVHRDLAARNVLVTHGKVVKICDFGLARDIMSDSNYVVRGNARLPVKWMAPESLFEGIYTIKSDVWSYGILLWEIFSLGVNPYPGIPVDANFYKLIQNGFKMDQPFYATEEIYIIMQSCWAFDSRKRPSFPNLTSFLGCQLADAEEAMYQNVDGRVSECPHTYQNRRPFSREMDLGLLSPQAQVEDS
# Assay: FLT3 (h) kinase assay
# Assay type: biochemical
# Description: Kinase assays can be performed by measurement of incorporation of γ-33P ATP into immobilized myelin basic protein (MBP). High binding white 384 well plates (Greiner) are coated with MBP (Sigma #M-1891) by incubation of 60 μL/well of 20 μg/mL MBP in Tris-buffered saline (TBS; 50 mM Tris pH 8.0, 138 mM NaCl, 2.7 mM KCl) for 24 h at 4° C. Plates are washed 3× with 100 μL TBS. Kinase reactions are carried out in a total volume of 34 μL in kinase buffer (according to the need to make, for example, 5 mM Hepes pH 7.6, 15 mM NaCl, 0.01% bovine gamma globulin (Sigma #I-5506), 10 mM MgCl2, 1 mM DTT, 0.02% TritonX-100). Compound dilutions are performed in DMSO and added to assay wells to a final DMSO concentration of 1%. Each data point is measured in duplicate, and at least two duplicate assays are performed for each individual compound determination. Enzyme is added to final concentrations of 10 nM or 20 nM, for example. A mixture of unlabeled ATP and γ-33P ATP is added to start the reaction (2×10^6 cpm of γ-33P ATP per well (3000 Ci/mmole) and 10 μM unlabeled ATP, typically. The reactions are carried out for 1 h at room temperature with shaking Plates are washed 7× with TBS, followed by the addition of 50 μL/well scintillation fluid (Wallac). Plates are read using a Wallac Trilux counter. This is only one format of such assays; various other formats are possible, as known to one skilled in the art.
# The above assay procedure can be used to determine the IC50 for inhibition and/or the inhibition constant, Ki. The IC50 is defined as the concentration of compound required to reduce the enzyme activity by 50% under the condition of the assay. The IC50 value is estimated by preparing a 10 point curve using a ½ log dilution series (for example, a typical curve may be prepared using the following compound concentrations: 3 μM, 1 μM, 0.3 μM, 0.1 μM, 0.03 μM, 0.01 μM, 0.003 μM, 0.001 μM, 0.0003 μM and 0 μM).
# FLT3 (h) is incubated with 8 mM MOPS pH 7.0, 0.2 mM EDTA, 50 μM EAIYAAPFAKKK, 10 mM MgAcetate and [γ-^33P-ATP] (specific activity approx. 500 cpm/pmol, concentration as required). The reaction is initiated by the addition of the MgATP mix. After incubation for 40 minutes at room temperature, the reaction is stopped by the addition of 3% phosphoric acid solution. 10 μL of the reaction is then spotted onto a P30 filtermat and washed three times for 5 minutes in 75 mM phosphoric acid and once in methanol prior to drying and scintillation counting.
# The kinase assays described herein were performed at Millipore UK Ltd, Dundee Technology Park, Dundee DD2 1SW, UK.
row,IC50 [nM],Compound
1,6,"Cn1cc(Nc2ncc(Cl)c(NC3CCN(c4ccc(C#N)cn4)CC3)n2)cn1 [Ex. 1, 6-(4-((5-chloro-2-((1-methyl-1H-pyrazol-4-yl)amino)pyrimidin-4-yl)amino)piperidin-1-yl)nicotinonitrile]"
2,151,Cc1c2ccc(Nc3ncc(Cl)c(NC4CCN(c5ccc(C#N)cn5)CC4)n3)cc2nn1C [Ex. 4]
3,42,"CN(c1nc(Nc2cnn(C)c2)ncc1Cl)C1CCN(c2ccc(C#N)cn2)CC1 [Ex. 5, 6-(4-((5-chloro-2-((1-methyl-1H-pyrazol-4-yl)amino)pyrimidin-4-yl) (methyl)amino)piperidin-1-yl)nicotinonitrile]"
4,9,"Cc1nn(C)cc1Nc1ncc(Cl)c(NC2CCN(c3ccc(C#N)cn3)CC2)n1 [Ex. 10, 6-(4-((5-chloro-2-((1,3-dimethyl-1H-pyrazol-4-yl)amino)pyrimidin-4-yl)amino)piperidin-1-yl)nicotinonitrile]"
5,21,"Cc1nn(C)cc1Nc1ncc(Cl)c(NC2CCN(c3ccc(C#N)nn3)CC2)n1 [Ex. 11, 6-(4-((5-chloro-2-((1,3-dimethyl-1H-pyrazol-4-yl)amino)pyrimidin-4-yl)amino)piperidin-1-yl)pyridazine-3-carbonitrile]"
6,4,"Cc1c2ccc(Nc3ncc(Cl)c(NC4CCN(c5ccc(C#N)nn5)CC4)n3)cc2nn1C [Ex. 12, 6-(4-((5-chloro-2-((2,3-dimethyl-2H-indazol-6-yl)amino)pyrimidin-4-yl)amino)piperidin-1-yl)pyridazine-3-carbonitrile]"
7,48,"Cc1cc(Nc2ncc(Cl)c(NC3CCN(c4ccc(C#N)nn4)CC3)n2)nn1C [Ex. 13, 6-(4-((5-chloro-2-((1,5-dimethyl-1H-pyrazol-3-yl)amino)pyrimidin-4-yl)amino)piperidin-1-yl)pyridazine-3-carbonitrile]"
